From article PMC5554137, “Evaluation of novel factor Xa inhibitors from Oxya chinensis sinuosa with anti-platelet aggregation activity” (Scientific Reports, 2017)

How the values were obtained:
FXa [1] = biological target: T1, FXa (Homo sapiens, UniProt P00742); experiment: Chromogenic substrate assay, Ki determination, Factor Xa; type: biochemical; details: for Ki: substrate S-2765 (Table 3), mean ± SD (n = 5)
T1 construct: purchased Haematologic Technologies (Essex Junction, VT, USA)
Protocol: (§1) The inhibitor (I) constants (Ki) were determined for the inhibition of a series of human enzymes (FXa, thrombin, trypsin, plasmin, protein Ca, streptokinase, tPA, and urokinase) by each compound. Chromogenic substrate assays were performed using a Labsystems IEMS (Cergy Pontoise, France) microtiter plate reader. In each assay, the compound was tested at a minimum of seven concentrations in duplicate to obtain an inhibition curve. Assays were performed according to the following general procedure. In a 96-well microtiter plate, 25 μL of compound, inhibitor solution or buffer was added to 50 μL of substrate. A volume of 25 μL of enzyme solution was added just before the plate was placed in the microtiter plate reader for 1 h at 37 °C. The hydrolysis of the substrate yields p-nitroaniline, which was continuously monitored spectrophotometrically at 405 nm. Data were collected and the initial rate of substrate hydrolysis [Vo (mOD/minute)] was calculated. Following Michaelis-Menten kinetics, the affinity of the enzyme for the substrate, in the absence of the inhibitor (Km) and in the presence of an inhibitor (Kp), was determined to be the negative inverse x-intercept of Lineweaver–Burk plots. The dissociation constant for inhibition (Ki) was calculated using the following equation: Ki = (Km·[I])/(Kp − Km) as described by Williams and Morrison[40].

α-Thrombin = biological target: T2, α-Thrombin (Homo sapiens, UniProt P00734); experiment: Chromogenic substrate assay, Ki determination, α-Thrombin; type: biochemical; details: for Ki: substrate S-2238
T2 construct: FXa converts prothrombin to thrombin; purchased Haematologic Technologies (Essex Junction, VT, USA)
Protocol: as §1

Trypsin = experiment: Chromogenic substrate assay, Ki determination, Trypsin; type: biochemical, human; details: for Ki: substrate S-2222
Protocol: as §1

Plasmin = Plasmin (Homo sapiens, UniProt P00747); experiment: Chromogenic substrate assay, Ki determination, Plasmin; type: biochemical; details: for Ki: substrate S-2251
Plasmin, sequence (P00747 581-810 limits assumed): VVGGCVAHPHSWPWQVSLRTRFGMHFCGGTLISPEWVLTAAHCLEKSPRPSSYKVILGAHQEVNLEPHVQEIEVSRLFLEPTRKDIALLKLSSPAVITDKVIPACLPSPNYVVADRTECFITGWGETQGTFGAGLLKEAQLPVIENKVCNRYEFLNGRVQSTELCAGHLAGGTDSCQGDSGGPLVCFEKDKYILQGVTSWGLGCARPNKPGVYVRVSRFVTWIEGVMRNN
Plasmin, sequence (P00747 97-580 limits assumed): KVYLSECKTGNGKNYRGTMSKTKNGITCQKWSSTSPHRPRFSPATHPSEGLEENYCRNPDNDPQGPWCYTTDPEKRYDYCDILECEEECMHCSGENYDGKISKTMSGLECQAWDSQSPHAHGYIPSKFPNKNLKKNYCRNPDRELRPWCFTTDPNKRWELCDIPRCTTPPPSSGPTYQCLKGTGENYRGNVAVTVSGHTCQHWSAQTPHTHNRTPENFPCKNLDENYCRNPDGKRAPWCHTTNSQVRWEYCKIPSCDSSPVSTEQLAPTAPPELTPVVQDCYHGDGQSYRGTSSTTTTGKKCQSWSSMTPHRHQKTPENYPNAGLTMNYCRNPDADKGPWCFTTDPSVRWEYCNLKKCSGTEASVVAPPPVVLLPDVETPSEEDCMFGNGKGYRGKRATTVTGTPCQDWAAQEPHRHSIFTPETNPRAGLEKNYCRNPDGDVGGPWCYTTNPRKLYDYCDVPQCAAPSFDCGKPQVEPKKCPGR
Protocol: as §1

Protein Ca = Protein Ca (Homo sapiens, UniProt P04070); experiment: Chromogenic substrate assay, Ki determination, Protein Ca; type: biochemical; details: for Ki: substrate S-2366
Protein Ca, sequence (P04070 212-461 limits assumed): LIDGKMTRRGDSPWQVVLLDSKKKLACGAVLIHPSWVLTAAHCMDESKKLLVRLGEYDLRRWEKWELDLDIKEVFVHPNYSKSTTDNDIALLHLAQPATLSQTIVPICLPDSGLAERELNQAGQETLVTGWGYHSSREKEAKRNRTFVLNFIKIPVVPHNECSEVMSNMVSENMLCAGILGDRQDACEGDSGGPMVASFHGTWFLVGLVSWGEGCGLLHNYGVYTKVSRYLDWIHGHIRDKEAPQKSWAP
Protein Ca, sequence (P04070 43-197 limits assumed): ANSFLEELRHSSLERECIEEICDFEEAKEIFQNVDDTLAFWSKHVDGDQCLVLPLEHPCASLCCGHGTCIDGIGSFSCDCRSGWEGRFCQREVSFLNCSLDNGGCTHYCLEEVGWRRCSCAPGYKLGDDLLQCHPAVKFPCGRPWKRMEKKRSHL
Protocol: as §1

[2] = system: Streptokinase (Homo sapiens); experiment: Chromogenic substrate assay, Ki determination, Streptokinase; type: biochemical; details: for Ki: substrate S-2251
Streptokinase (Homo sapiens), sequence (P00747 581-810 limits assumed): as the sequence (P00747 581-810 limits assumed) above
Protocol: as §1

tPA = tPA (Homo sapiens, UniProt P00750); experiment: Chromogenic substrate assay, Ki determination, tPA; type: biochemical; details: for Ki: substrate S-2228
tPA, sequence (P00750 36-562): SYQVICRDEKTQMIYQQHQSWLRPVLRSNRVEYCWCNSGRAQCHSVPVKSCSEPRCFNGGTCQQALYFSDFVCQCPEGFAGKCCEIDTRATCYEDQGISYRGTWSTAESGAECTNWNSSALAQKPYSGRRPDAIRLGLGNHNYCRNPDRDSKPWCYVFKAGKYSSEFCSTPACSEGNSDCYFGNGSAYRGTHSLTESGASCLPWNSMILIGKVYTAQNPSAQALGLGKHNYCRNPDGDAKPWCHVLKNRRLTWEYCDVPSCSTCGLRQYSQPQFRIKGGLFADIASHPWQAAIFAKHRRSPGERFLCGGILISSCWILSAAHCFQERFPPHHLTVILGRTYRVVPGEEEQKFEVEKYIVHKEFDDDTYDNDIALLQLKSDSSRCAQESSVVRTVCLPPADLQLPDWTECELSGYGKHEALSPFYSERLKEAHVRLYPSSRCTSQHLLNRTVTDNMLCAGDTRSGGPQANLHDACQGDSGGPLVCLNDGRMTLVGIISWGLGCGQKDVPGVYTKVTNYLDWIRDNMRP
Protocol: as §1

Urokinase = Urokinase (Homo sapiens, UniProt P00749); experiment: Chromogenic substrate assay, Ki determination, Urokinase; type: biochemical; details: for Ki: substrate S-2444
Protocol: as §1

FXa [3] = biological target: T1, FXa; experiment: Inhibition of amidolytic activity of FXa toward S-2222 (Michaelis-Menten, Lineweaver-Burk; with or without TFPI); type: biochemical; details: for type of inhibition of FXa (Lineweaver-Burk plots) / slope of inhibition activity plot: S-2222; for slope of inhibition activity plot: FXa; for Ki: substrate S-2222
Protocol: To elucidate the mechanisms responsible for inhibition of coagulation and platelet aggregation by compounds 1–4, inhibition of FXa activity was determined using chromogenic substrates. […] We observed a decrease in Vmax, with no effect on the Km of FXa toward S-2222 in the presence of compound 1. […] We also observed a slope of 0.401 for the control without compound 2, and slopes of 0.442 and 0.465 for compound 2 at concentrations of 2 and 5 µM, respectively. […] We observed a decrease in Vmax, with no effect on the Km of FXa toward S-2222 in the presence of compound 2. […] Inhibition activity plots were obtained for different concentrations of compound 3, showing a slope of 0.388 for the control without compound 3, and slopes of 0.408 and 0.464 for compound 3 at concentrations of 2 and 5 µM, respectively. […] We also observed a slope of 0.363 for the control without compound 4, and slopes of 0.376 and 0.398 for compound 4 at concentrations of 2 and 5 µM, respectively. […] We observed a decrease in Vmax, with no effect on the Km of FXa toward S-2222 in the presence of compound 4.
Figure 6 Effects of compounds 1–4 on inhibition and production of FXa. […] The plots represent means of three independent measurements. (E) Human umbilical vein endothelial cells (HUVECs) were pre-incubated with the indicated concentration of each compound for 10 min. HUVECs stimulated with tumor necrosis factor-α (TNF-α, 10 ng/mL for 6 h) were incubated with FVIIa (10 nM) and FX (175 nM) in the absence or presence of anti-TF IgG (25 µg/mL). FXa production was determined as described in the “ Supplementary Materials and Methods” section. D = 0.2% DMSO used as the vehicle control. (F) Inhibition of FXa by each compound (5 μM) with or without TFPI (2 nM) was monitored using a chromogenic assay. ^* p < 0.05 vs. TNF-α alone (E) or each compound (F) alone, analyzed via one-way ANOVA, followed by Tukey multiple comparison testing.
Each compound with or without TFPI was dissolved in 50 mM Tris-HCl buffer (pH 7.4) containing 7.5 mM EDTA and 150 mM NaCl. Following a 2-min incubation at 37 °C, FXa solution (150 μL, 1 U/mL) was added, followed by incubation at 37 °C for 1 min. S-2222 (an FXa substrate, 150 μL, 1.5 mM) solution was subsequently added, and the absorbance at 405 nm was monitored for 20 min using a spectrophotometer (TECAN, Männedorf, Switzerland). The absorbance-time curve and the slope of the curve (Vi) were used to represent the activity of the enzyme. Distilled water served as a control (the slope of curve V0). The inhibitory effect was calculated according to equation (1):1 Inhibitoryrate(%)=(V0−Vi)/V0×100 where V0 represents the slope of the vehicle and Vi represents the slope of the samples.

C57BL/6 mice = experiment: Tail bleeding time; type: in vivo; details: tail-cutting assay, mean ± SD, n = 10
Protocol: Figure 4 Effects of compounds 1–4 on clotting and bleeding time. (A) One hour after administration (intravenous injection) of compound 1 (white box), 2 (light gray box), 3 (dark gray box), or 4 (black box), blood was collected from the mice and platelet-poor plasma (PPP) was obtained by centrifugation at 2,000 × g for 10 min at room temperature to test ex vivo activated partial thromboplastin time (aPTT). (B) Each group received a daily intravenous injection of the indicated compound for four consecutive days. Fifteen minutes after the last administration, blood samples were collected and in vivo aPTT was measured. (C) Fifteen minutes after administration of each compound or aspirin (4.5 or 9 mg/kg for 30 min) or the vehicle, tail tips (3 mm long) were cut from each mouse, and the remaining tail was immediately immersed into saline at 37 °C. Accumulated bleeding times (including periods of re-bleeding) were recorded. D = 0.2% DMSO used as the vehicle control. Data are presented as means ± SD of three independent experiments. *p < 0.05 vs. vehicle alone, analyzed by one-way ANOVA, followed by Tukey multiple comparison testing.
To assess bleeding risk incurred by compounds 1–4, we measured bleeding time in mice treated with each compound (up to 30 µM/mouse) by using a tail-cutting assay; the concentration used was three-fold higher than the doses used for the in vivo anti-thrombotic studies. Aspirin-treated mice (9 mg/kg) served as positive controls. […] However, the bleeding time in mice treated with compounds 1–4 was shorter than that observed in mice treated with aspirin ([…], mean ± SD, n = 10). The dose required to avoid thrombus formation and to protect against paralysis or death in mice was determined to be 5 µM per mouse (Fig. 7C).
Tail bleeding times were measured using the method described by Dejana et al.[37]. Briefly, C57BL/6 mice were fasted overnight prior to the experiments. […] after the i.v. administration of each compound, the tails of the mice were transected […] from their tips. Bleeding time was defined as the time elapsed until bleeding stopped. Bleeding times that exceeding 15 min were recorded as 15 min.

T1 sequence (P00742 235-488 limits assumed): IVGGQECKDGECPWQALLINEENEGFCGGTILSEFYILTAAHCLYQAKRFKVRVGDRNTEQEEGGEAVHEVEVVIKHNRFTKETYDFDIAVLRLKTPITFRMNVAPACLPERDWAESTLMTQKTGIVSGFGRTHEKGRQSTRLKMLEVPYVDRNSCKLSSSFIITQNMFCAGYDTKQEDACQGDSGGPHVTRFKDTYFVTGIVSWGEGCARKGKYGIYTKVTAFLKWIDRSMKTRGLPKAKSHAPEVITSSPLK
T1 sequence (P00742 41-179 limits assumed): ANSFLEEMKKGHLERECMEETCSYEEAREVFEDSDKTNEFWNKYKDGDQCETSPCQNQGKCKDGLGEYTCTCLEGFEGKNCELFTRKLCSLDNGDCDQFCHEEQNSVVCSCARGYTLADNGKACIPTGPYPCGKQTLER

| Structure (SMILES) | Ratio = Ki enzyme/Ki Factor Xa, Factor Xa (FXa [1]) | Ki (FXa [1]) | Ratio = Ki enzyme/Ki Factor Xa, α-Thrombin (α-Thrombin) | Ki (α-Thrombin) | Ratio = Ki enzyme/Ki Factor Xa, Trypsin (Trypsin) | Ki (Trypsin) | Ratio = Ki enzyme/Ki Factor Xa, Plasmin (Plasmin) | Ki (Plasmin) | Ratio = Ki enzyme/Ki Factor Xa, Protein Ca (Protein Ca) | Ki (Protein Ca) | Ratio = Ki enzyme/Ki Factor Xa, Streptokinase [2] | Ki [2] | Ratio = Ki enzyme/Ki Factor Xa, tPA (tPA) | Ki (tPA) | Ratio = Ki enzyme/Ki Factor Xa, Urokinase (Urokinase) | Ki (Urokinase) | Km of FXa toward S-2222 in the presence of compound (FXa [3]) | Vmax of FXa toward S-2222 in the presence of compound (FXa [3]) | type of inhibition of FXa (Lineweaver-Burk plots) (FXa [3]) | slope of inhibition activity plot (FXa [3]; compound at 2 µM) | also measured |
| --- | --- | --- | --- | --- | --- | --- | --- | --- | --- | --- | --- | --- | --- | --- | --- | --- | --- | --- | --- | --- | --- |
| CC(=O)NCCc1ccc2c(c1)O[C@H](NC(C)=O)[C@@H](c1ccc(O)c(O)c1)O2 [Compound 3, (2 R,3 S)-2-(3′,4′-dihydroxyphenyl)-3-acetylamino-6-(N-acetyl-2″-aminoethyl)-1,4-benzodioxane] | 1 | 4.45 ± 0.37 µM | >100 | > 500 µM | >100 | > 500 µM | >100 | > 500 µM | >100 | > 500 µM | >100 | > 500 µM | >100 | > 500 µM | >100 | > 500 µM | no effect | decrease | noncompetitive inhibition | 0.408 | slope of inhibition activity plot (FXa [3]; compound at 5 µM): 0.464; Ki (FXa [3]): 4.45 µM; bleeding time (C57BL/6 mice; mice treated with 10 µM): 12.1 ± 1.1 min; bleeding time (C57BL/6 mice; mice treated with 30 µM): 12.3 ± 1.3 min |
| CC(=O)NCCc1ccc2c(c1)O[C@@H](NC(C)=O)[C@@H](c1ccc(O)c(O)c1)O2 [Compound 2, (2 R,3 R)-2-(3′,4′-dihydroxyphenyl)-3-acetylamino-6-(N-acetyl-2″-aminoethyl)-1,4-benzodioxane] | 1 | 4.13 ± 0.43 µM | >100 | > 500 µM | >100 | > 500 µM | >100 | > 500 µM | >100 | > 500 µM | >100 | > 500 µM | >100 | > 500 µM | >100 | > 500 µM | no effect | decrease | noncompetitive inhibition | 0.442 | slope of inhibition activity plot (FXa [3]; compound at 5 µM): 0.465; Ki (FXa [3]): 4.13 µM; bleeding time (C57BL/6 mice; mice treated with 10 µM): 12.5 ± 1.2 min; bleeding time (C57BL/6 mice; mice treated with 30 µM): 13.5 ± 1.1 min |
| CC(=O)NCCc1ccc2c(c1)O[C@H](c1ccc(O)c(O)c1)[C@@H](NC(C)=O)O2 [Compound 4, (2 R,3 S)-2-(3′,4′-dihydroxyphenyl)-3-acetylamino-7-(N-acetyl-2″-aminoethyl)-1,4-benzodioxane] | 1 | 4.72 ± 0.31 µM | >100 | > 500 µM | >100 | > 500 µM | >100 | > 500 µM | >100 | > 500 µM | >100 | > 500 µM | >100 | > 500 µM | >100 | > 500 µM | no effect | decrease | noncompetitive inhibition | 0.376 | slope of inhibition activity plot (FXa [3]; compound at 5 µM): 0.398; Ki (FXa [3]): 4.72 µM |
